Here are results for one compound from US20250171404A1, “PCNA INHIBITORS AND USES THEREOF” (CITY OF HOPE, priority 2022, published 2025).

Data set [1] in a line: Oral pharmacokinetic study in dogs. Format: in vivo, beagle dogs. How it is done: FIGS. 4A-4H. Pharmacokinetics and anti-tumor growth activity of AOH1996 in vivo. FIG. 4A: After oral administration, the plasma concentrations of AOH1996 from three male and three female ES1^e/SCID mice at the indicated time points were averaged and graphed ±S.D. The inset contains PK parameters determined by a standard noncompartmental method. FIG. 4B: A similar PK study of AOH1996 was performed in dogs. FIGS. 4C-4E: Mice bearing the xenograft tumors of neuroblastoma (FIG. 4C: SK-N-BE(2)c), breast cancer (FIG. 4D: MDA-MB-468), and small-cell lung cancer (FIG. 4E: H82) were given vehicle only (black) or 40 mg/kg of AOH1996 (grey) twice daily immediately after the first measurement. Tumor sizes were measured by a dial caliper each week. […] FIG. 4F: Animal body weight was monitored throughout the studies as an indicator of toxicity. […] FIG. 4G: The levels of phosphor-Chk1 (pChk1) and γH2A.X in SK-N-BE(2)c derived tumor samples were analyzed by IHC. […] The p values determined by the Log-rank (Mantel-Cox) test between combination treatment and each of the control groups are p=0.0003 (Combination vs. NoRx), p=0.005 (Combination vs. AOH1996 alone), and p=0.024 (Combination vs. CPT-11 alone).
Pharmacokinetic (PK) study in animals. […] Following removal of blood cells, plasma concentration of AOH1996 was determined by LC-MS/MS as described (Gu et al., 2018). […]

For data set [2], the system named is PCNA and MCM7 on chromatin, MDA-MB-468 cells. In words: Cell fractionation, chromatin-bound PCNA and MCM7. Particulars: 5, 50, or 500 nM, 24 h. Format: cell-based, human. How it is done:
FIGS. 7A-7E. Transcription dependent effect on DNA replication and damage. FIG. 7A: Left: Schematic of the cell fractionation procedure. Right: MDA-MB-468 cells were treated by increasing concentrations of AOH1996 (5, 50, or 500 nM) for 24 h. Cells treated with DMSO were used as control. Whole cell extract (WCE) and protein fractions associated with actively transcribed chromatin (CB:RNA+) or with low or non-transcribed chromatin (CB:RNA−) were analyzed by Western blot using antibodies against PCNA, CAF-1, and MCM7. FIG. 7B: Synchronized cancer cells were sequentially incubated in the presence of CldU (light grey) and IdU (dark grey) before and after AOH1996 treatment, respectively. […] Middle and Right: Lengths of CldU (light grey) and IdU (dark grey) incorporated DNA segments measured for more than 30 independent DNA strands from the indicated cancer cell type were averaged and graphed ±S.D. FIG. 7C: Whole cell lysates were extracted from SK-N-AS cells homozygous of the wildtype RPB1 allele or the APIM-mutant allele. Histone H2A.X and γH2A.X was analyzed by Western blot after treatment with or without AOH1996 overnight. FIG. 7D: Histone H2A.X and γH2A.X in whole cell lysates from SK-N-AS cells were analyzed by Western blot after treatment with 500 nM AOH1996 and/or 50 μM DRB overnight. […]

On to `COc1cccc(Oc2ccccc2NC(=O)CNC(=O)c2cccc3ccccc23)c1` [AOH1996, N-(2-((2-(3-methoxyphenoxy)phenyl)amino)-2-oxoethyl)-1-naphthamide], for which the “PK parameters in dogs” value in data set [1] is given as “Comparable PK parameters”. Further, the “association of PCNA and MCM7 with chromatin” value in data set [2] is “caused dissociation of PCNA and MCM7 from the actively transcribed open chromatin regions”.
